Type: in vivo, mouse
Conditions: max. dose not affecting mice behaviour
Procedure: The analgesic action was detected in mouse, rat, guinea pig and dog. The mouse was subjected to hot plate and writhing tests; the rat to tail-flick and paw-pressure tests; the guinea pig to paw-pressure test only; the dog to the test described by Vainio et al. [J. Vet. Pharmacol. Ther., 12, 225-231 (1989)] using an electric stimulation. Consequently, the claimed compounds were tested with pain being induced by stimuli of different nature: thermal (hot plate and tail flick), chemical (writhing by acetic acid), mechanical (paw pressure) and electrical (cutaneous stimulation).
Potency, efficacy and toxicity of SM21, PG9 and SM32 in comparison with
four principal reference analgesic drugs tested in mouse. As analgesic
In the case of `CCC(Sc1ccc(Cl)cc1)C(=O)OC1CC2CCC(C1)N2C` (single isomer, unassigned) [(S) SM35 (-), 3α-Tropanyl 2-(p-chlorophenylthio)butyrate], the “ANALGESIC ACTIVITY (degree of analgesia, latency on hot plate)” value (from here on “ANALGESIC ACTIVITY”) is reported as “++ (Latency under or equal to 30" ++-)”.
For `CC(Oc1ccc(F)cc1)C(=O)OC1CC2CCC(C1)N2C` (single isomer, unassigned) [(R) NR100 (+)], the “ANALGESIC ACTIVITY” value was “++++ (Latency above 35" ++++-)”.
With `CC(Oc1ccc(Cl)cc1)C(=O)N[C@H]1C[C@H]2CC[C@@H](C1)N2C` (stereo partly drawn) [SS-16, N-(3α-tropanyl)-2-(p-chlorophenoxy)-propionamide] the “ANALGESIC ACTIVITY” value was “+ (Latency under or equal to 25" +-)”.
For `CN1[C@@H]2CC[C@H]1C[C@@H](OC(=O)C(C)(C)Oc1ccc(Cl)cc1)C2` [SM-25, 3α-Tropanyl 2-(p-chlorophenoxy)-isobutyrate], the “ANALGESIC ACTIVITY” value was “++ (Latency under or equal to 30" ++-)”.
For `CC(Sc1ccc(F)cc1)C(=O)OC1CC2CCC(C1)N2C` (centres unmarked) [SM23], the “ANALGESIC ACTIVITY” value was “++ (Latency under or equal to 30" ++-)”.
For `CC(Nc1ccc(Cl)cc1)C(=O)OC1CC2CCC(C1)N2C` (stereo not drawn) [AC5, 3α-Tropanyl 2-(p-chlorophenylamino)-propionate], the “ANALGESIC ACTIVITY” value was “+ (Latency under or equal to 25" +-)”.
In the case of `CCC(Oc1ccc2cc(Br)ccc2c1)C(=O)OC1CC2CCC(C1)N2C` (centres unmarked) [AC31], the “ANALGESIC ACTIVITY” value is reported as “+ (Latency under or equal to 25" +-)”.
For `CCC(Sc1ccc(Cl)cc1)C(=O)O[C@H]1C[C@H]2CC[C@@H](C1)N2C` (stereo partly drawn) [SM-35, 3α-Tropanyl 2-(p-chlorophenylthio)-butyrate], the “ANALGESIC ACTIVITY” value was “+++ (Latency under or equal to 35" +++-)”.
In the case of `CC(Oc1ccc(F)cc1)C(=O)O[C@H]1C[C@H]2CC[C@@H](C1)N2C` (some centres unmarked) [NR100], the “ANALGESIC ACTIVITY” value is reported as “++++ (Latency above 35" ++++-)”.
In the case of `CC(Sc1ccccc1)C(=O)OC1CC2CCC(C1)N2C` (centres unmarked) [SS12], the “ANALGESIC ACTIVITY” value is reported as “++ (Latency under or equal to 30" ++-)”.
With `CC(C)Cc1ccc(C(C)C(=O)OC2CC3CCC(C2)N3C)cc1` (centres unmarked) [PG16] the “ANALGESIC ACTIVITY” value was “+ (Latency under or equal to 25" +-)”.
With `CCC(Oc1ccc(Cl)cc1)C(=O)O[C@H]1C[C@H]2CC[C@@H](C1)N2CC` (stereo partly drawn) [GC-11, N-Ethyl-3α-nortropanyl 2-(p-chlopophenoxy)butyrate] the “ANALGESIC ACTIVITY” value was “++ (Latency under or equal to 30" ++-)”.
For `CC(Sc1ccc(Br)cc1)C(=O)OC1CC2CCC(C1)N2C` (centres unmarked) [SM17], the “ANALGESIC ACTIVITY” value was “++++ (Latency above 35" ++++-)”.
With `CC(Sc1ccc(Cl)cc1)C(=O)OC1CC2CCC(C1)N2C` (single isomer, unassigned) [(S) SS20 (+)] the “ANALGESIC ACTIVITY” value was “++ (Latency under or equal to 30" ++-)”.
For `CC(Oc1ccc(Br)cc1)C(=O)O[C@H]1C[C@H]2CC[C@@H](C1)N2C` (some centres unmarked) [SM15], the “ANALGESIC ACTIVITY” value was “++ (Latency under or equal to 30" ++-)”.
With `Cc1ccc(SC(C)C(=O)OC2CC3CCC(C2)N3C)cc1` (centres unmarked) [SS21] the “ANALGESIC ACTIVITY” value was “+ (Latency under or equal to 25" +-)”.
With `CC(C(=O)OC1CC2CCC(C1)N2C)c1ccc([N+](=O)[O-])cc1` (centres unmarked) [PG4] the “ANALGESIC ACTIVITY” value was “+ (Latency under or equal to 25" +-)”.
In the case of `CC(Oc1ccc(Cl)c(Cl)c1)C(=O)OC1CC2CCC(C1)N2C` (centres unmarked) [SS10], the “ANALGESIC ACTIVITY” value is reported as “+ (Latency under or equal to 25" +-)”.
In the case of `CCC(C(=O)OC1CC2CCC(C1)N2C)c1ccc(Br)cc1` (centres unmarked) [PG24], the “ANALGESIC ACTIVITY” value is reported as “+++ (Latency under or equal to 35" +++-)”.
With `CCN1C2CCC1CC(OC(=O)C(C)Oc1ccc(Cl)cc1)C2` (centres unmarked) [GC9] the “ANALGESIC ACTIVITY” value was “++ (Latency under or equal to 30" ++-)”.
For `CC(C)C(Sc1ccc(Cl)cc1)C(=O)OC1CC2CCC(C1)N2C` (centres unmarked) [AC11], the “ANALGESIC ACTIVITY” value was “+ (Latency under or equal to 25" +-)”.
For `CC(Oc1ccc(C#N)cc1)C(=O)O[C@H]1C[C@H]2CC[C@@H](C1)N2C` (some centres unmarked) [SS26], the “ANALGESIC ACTIVITY” value was “++ (Latency under or equal to 30" ++-)”.
In the case of `CC(C(=O)O[C@H]1C[C@H]2CC[C@@H](C1)N2C)c1ccc(Cl)cc1` (stereo partly drawn) [PG-8, 3α-Tropanyl 2-(p-chlorophenyl)-propionate], the “ANALGESIC ACTIVITY” value is reported as “+++ (Latency under or equal to 35" +++-)”.
In the case of `CC(Oc1ccc(Cl)cc1)C(=O)OC1CC2CCC(C1)N2C` (single isomer, unassigned) [(R) ET142 (+)], the “ANALGESIC ACTIVITY” value is reported as “+++ (Latency under or equal to 35" +++-)”.
With `CC(Oc1ccc(C(F)(F)F)cc1)C(=O)O[C@H]1C[C@H]2CC[C@@H](C1)N2C` (some centres unmarked) [SM19] the “ANALGESIC ACTIVITY” value was “+ (Latency under or equal to 25" +-)”.
For `CC(C(=O)OC1CC2CCC(C1)N2C)c1ccccc1Br` (centres unmarked) [PG23], the “ANALGESIC ACTIVITY” value was “++ (Latency under or equal to 30" ++-)”.
With `CCC(Sc1ccc(Cl)cc1)C(=O)OC1CC2CCC(C1)N2C` (single isomer, unassigned) [(R) SM35 (+), 3α-Tropanyl 2-(p-chlorophenylthio)butyrate] the “ANALGESIC ACTIVITY” value was “+++ (Latency under or equal to 35" +++-)”.
With `CC(C(=O)OC1CC2CCC(C1)N2C)c1ccccc1Cl` (centres unmarked) [PG14] the “ANALGESIC ACTIVITY” value was “+++ (Latency under or equal to 35" +++-)”.
In the case of `CC(Sc1ccc(Cl)cc1)C(=O)O[C@H]1C[C@H]2CC[C@@H](C1)N2C` (stereo partly drawn) [SS-20, 3α-Tropanyl 2-(p-chlorophenylthio)propionate], the “ANALGESIC ACTIVITY” value is reported as “+++ (Latency under or equal to 35" +++-)”.
For `CC(C(=O)OC1CC2CCC(C1)N2C)c1cccc(Cl)c1` (centres unmarked) [PG13], the “ANALGESIC ACTIVITY” value was “+++ (Latency under or equal to 35" +++-)”.
With `CC(C(=O)OC1CC2CCC(C1)N2C)c1ccc(N)cc1` (centres unmarked) [PG5] the “ANALGESIC ACTIVITY” value was “+ (Latency under or equal to 25" +-)”.
With `CC(Oc1cccc(Cl)c1)C(=O)OC1CC2CCC(C1)N2C` (centres unmarked) [SM12] the “ANALGESIC ACTIVITY” value was “++ (Latency under or equal to 30" ++-)”.
For `CC(C(=O)OC1CC2CCC(C1)N2C)c1ccc(F)cc1` (centres unmarked) [PG21], the “ANALGESIC ACTIVITY” value was “+++ (Latency under or equal to 35" +++-)”.
With `CSc1ccc(OC(C)C(=O)O[C@H]2C[C@H]3CC[C@@H](C2)N3C)cc1` (some centres unmarked) [NR95] the “ANALGESIC ACTIVITY” value was “+ (Latency under or equal to 25" +-)”.
For `CCC(Oc1ccc(F)cc1)C(=O)OC1CC2CCC(C1)N2C` (centres unmarked) [AC15], the “ANALGESIC ACTIVITY” value was “++++ (Latency above 35" ++++-)”.
With `CC(Nc1ccccc1)C(=O)OC1CC2CCC(C1)N2C` (centres unmarked) [SS29] the “ANALGESIC ACTIVITY” value was “+++ (Latency under or equal to 35" +++-)”.
For `COc1ccc(C(C)C(=O)OC2CC3CCC(C2)N3C)cc1` (centres unmarked) [PG18], the “ANALGESIC ACTIVITY” value was “+ (Latency under or equal to 25" +-)”.
For `CC(Oc1ccc2ccccc2c1)C(=O)O[C@H]1C[C@H]2CC[C@@H](C1)N2C` (stereo partly drawn) [AC-19, 3α-Tropanyl 2-(β-naphthoxy)propionate], the “ANALGESIC ACTIVITY” value was “+++ (Latency under or equal to 35" +++-)”.
With `CCC(C(=O)OC1CC2CCC(C1)N2C)N(C)c1ccc(Cl)cc1` (centres unmarked) [AC13] the “ANALGESIC ACTIVITY” value was “++++ (Latency above 35" ++++-)”.
With `CC(Sc1ccc(Cl)cc1)C(=O)OC1CC2CCC(C1)N2C` (single isomer, unassigned) [(R) SS20 (+)] the “ANALGESIC ACTIVITY” value was “+++ (Latency under or equal to 35" +++-)”.
In the case of `CC(Oc1ccc(F)cc1)C(=O)OC1CC2CCC(C1)N2C` (single isomer, unassigned) [(S) NR100 (-)], the “ANALGESIC ACTIVITY” value is reported as “+++ (Latency under or equal to 35" +++-)”.
In the case of `CC(Oc1ccc(Cl)cc1)C(=O)OC1CC2CCC(C1)N2C` (single isomer, unassigned) [(S) ET142 (-)], the “ANALGESIC ACTIVITY” value is reported as “++ (Latency under or equal to 30" ++-)”.
With `CC(C(=O)O[C@H]1C[C@H]2CC[C@@H](C1)N2C)N(C)c1ccc(Cl)cc1` (stereo partly drawn) [AC6, 3α-Tropanyl 2-[N-methyl-N(p-chlorophenyl)amino]-propionate] the “ANALGESIC ACTIVITY” value was “++ (Latency under or equal to 30" ++-)”.

Same assay, conditions: mouse; in μmoles/kg
In the case of `CN1CC[C@]23c4c5ccc(O)c4O[C@H]2[C@@H](O)C=C[C@H]3[C@H]1C5.Cl` [Morphine HCl, reference compound], the “dose required to obtain analgesia equivalent to that of the claimed compounds” value is reported as “three times lower”.
